Measurements as given in US7151195B2, “Phthalamide derivative, agricultural or horticultural insecticide, and method of use thereof” (Bayer CropScience LP, priority 2002, dated 2006).

What was measured:
Format in all cases: in vivo
[1] = tested on: Diamond Back Moth (Plutella xylostella); assay: Insecticidal test on diamond back moth (Test Example 1); conditions: Chinese cabbage seedling with eggs immersed about 30 seconds, hatched insects counted six days after immersion, 25° C.; for Test Example 1: insecticidal effect (mortality criterion): 50 ppm; for mortality at 50 ppm: Plutella xylostella, 144 h, read-out: Test Example 1: insecticidal effect (mortality criterion)
Experimental: Adult diamond back moths were released and allowed to oviposit on a Chinese cabbage seedling. Two days after the release, the seedling having the eggs deposited thereon was immersed for about 30 seconds in a liquid chemical prepared by diluting a preparation containing each compound listed in Tables 1 to 3 as an active ingredient to adjust the concentration to 50 ppm. After air-dryness, it was allowed to stand in a room thermostatted at 25° C. Six days after the immersion, the hatched insects were counted. The mortality was calculated according to the following equation and the insecticidal effect was judged according to the criterion shown below. The test was carried out with triplicate groups of 10 insects.

[2] = tested on: Common Cutworm (Spodoptera litura); assay: Insecticidal test on common cutworm (Test Example 2); conditions: cabbage leaf immersed about 30 seconds, second-instar larvae, counted eight days after inoculation, 25° C.; for Test Example 2: insecticidal effect (mortality criterion): 50 ppm; for mortality at 50 ppm: Spodoptera litura, 192 h, read-out: Test Example 2: insecticidal effect (mortality criterion)
Experimental: A piece of cabbage leaf (cultivar; Shikidori) was immersed for about 30 seconds in a liquid chemical prepared by diluting a preparation containing each compound listed in Tables 1 to 3 as an active ingredient to adjust the concentration to 50 ppm. After air-dryness, it was placed in a plastic Petri dish with a diameter of 9 cm and inoculated with second-instar larvae of common cutworm, after which the dish was closed and then allowed to stand in a room thermostatted at 25° C. Eight days after the inoculation, the dead and alive were counted. The mortality was calculated according to the following equation and the insecticidal effect was judged according to the criterion shown in Test Example 1. The test was carried out with triplicate groups of 10 insects.

[3] = tested on: Smaller Tea Tortrix (Adoxophyes sp.); assay: Insecticidal test on smaller tea tortrix (Test Example 3); conditions: 50 ppm; tea leaves immersed about 30 seconds; larvae; counted eight days after inoculation; 25° C., humidity 70%
Experimental: Tea leaves were immersed for about 30 seconds in a liquid chemical prepared by diluting a preparation containing each compound listed in Tables 1 to 3 as an active ingredient to adjust the concentration to 50 ppm. After air-dryness, the tea leaves were placed in a plastic Petri dish with a diameter of 9 cm and inoculated with larvae of smaller tea tortrix, after which the dish was allowed to stand in a room thermostatted at 25° C. and having a humidity of 70%. Eight days after the inoculation, the dead and alive larvae were counted and, the mortality was calculated according to the equation shown in Test Example 2, and the insecticidal effect was judged according to the criterion shown in Test Example 1. The test was carried out with triplicate groups of 10 insects.

SMILES | Test Example 1: insecticidal effect (mortality criterion) [1] | Test Example 2: insecticidal effect (mortality criterion) [2] | Test Example 3: insecticidal effect (mortality criterion) [3] | mortality at 50 ppm [1] | mortality at 50 ppm [2]
C[S+]([O-])CC(C)(C)NC(=O)c1c(I)cccc1C(=O)Nc1cccc(S(F)(F)(F)(F)F)c1 (stereo not drawn) [3-6] | A (Mortality 100%) | D (Mortality 79–50%) | E (Mortality 49% or less) |  | 
CCN(C(=O)c1cccc(I)c1C(=O)NC(C)(C)C[S+](C)[O-])c1ccc(S(F)(F)(F)(F)F)cc1 (stereo not drawn) [2-23] | A (Mortality 100%) | A (Mortality 100%) | E (Mortality 49% or less) |  | 
CCN(C(=O)c1cccc(I)c1C(=O)NC(C)(C)CS(C)(=O)=O)c1ccc(S(F)(F)(F)(F)F)cc1 [2-24] | A (Mortality 100%) | A (Mortality 100%) | A (Mortality 100%) |  | 
CSCC(C)(C)NC(=O)c1c(I)cccc1C(=O)Nc1ccc(S(F)(F)(F)(F)F)cc1C [1-296] | A (Mortality 100%) | A (Mortality 100%) | A (Mortality 100%) |  | 
Cc1cc(S(F)(F)(F)(F)F)ccc1NC(=O)c1cccc(I)c1C(=O)NC(C)(C)C[S+](C)[O-] (stereo not drawn) [1-297] | A (Mortality 100%) | A (Mortality 100%) | A (Mortality 100%) |  | 
CSCC(C)(C)NC(=O)c1c(I)cccc1C(=O)Nc1cccc(S(F)(F)(F)(F)F)c1 [3-5] | A (Mortality 100%) | E (Mortality 49% or less) | A (Mortality 100%) |  | 
CCN(C(=O)c1cccc(I)c1C(=O)NC(C)(C)CSC)c1ccc(S(F)(F)(F)(F)F)cc1 [2-22] | A (Mortality 100%) | A (Mortality 100%) | A (Mortality 100%) |  | 
CSCC(C)NC(=O)c1c(I)cccc1C(=O)Nc1ccc(S(F)(F)(F)(F)F)cc1C (stereo not drawn) [1-290] | A (Mortality 100%) | A (Mortality 100%) | A (Mortality 100%) |  | 
Cc1cc(S(F)(F)(F)(F)F)ccc1NC(=O)c1cccc(I)c1C(=O)NC(C)(C)CS(C)(=O)=O [1-298] | A (Mortality 100%) | A (Mortality 100%) | A (Mortality 100%) |  | 
CSCC(C)(C)NC(=O)c1c(I)cccc1C(=O)Nc1ccc(S(F)(F)(F)(F)F)cc1 [1-458] | A (Mortality 100%) | A (Mortality 100%) | A (Mortality 100%) |  | 
CC(C)(CS(C)(=O)=O)NC(=O)c1c(I)cccc1C(=O)Nc1cccc(S(F)(F)(F)(F)F)c1Cl [3-26] | A (Mortality 100%) | A (Mortality 100%) | A (Mortality 100%) |  | 
CSCC(C)(C)NC(=O)c1c(I)cccc1C(=O)Nc1ccc(S(F)(F)(F)(F)F)cc1Cl [1-372, N^1-(2-chloro-4-pentafluorosulfanylphenyl)-N^2-(1,1-dimethyl-2-methylthioethyl)-3-iodophthalamide] |  |  | A (Mortality 100%) | 100% | 100%
CC(C)(CS(C)(=O)=O)NC(=O)c1c(I)cccc1C(=O)Nc1cccc(S(F)(F)(F)(F)F)c1 [3-7] | A (Mortality 100%) | A (Mortality 100%) | A (Mortality 100%) |  | 
CSCC(C)(C)NC(=O)c1c(I)cccc1C(=O)Nc1cccc(S(F)(F)(F)(F)F)c1Cl [3-24] | A (Mortality 100%) | A (Mortality 100%) | A (Mortality 100%) |  | 
Cc1cc(S(F)(F)(F)(F)F)ccc1NC(=O)c1cccc(I)c1C(=O)NC(C)CS(C)(=O)=O (stereo not drawn) [1-292] | A (Mortality 100%) | A (Mortality 100%) | A (Mortality 100%) |  | 
CC(C)(CS(C)(=O)=O)NC(=O)c1c(I)cccc1C(=O)Nc1ccc(S(F)(F)(F)(F)F)cc1Cl [1-374, N^1-(2-chloro-4-pentafluorosulfanylphenyl)-N^2-(1,1-dimethyl-2-methylsulfonylethyl)-3-iodophthalamide] |  |  | A (Mortality 100%) | 100% | 100%
